Columns and labels:
[1] = tested on: RKO (RKOp27) human colon adenocarcinoma cells; assay: Alamar Blue cell viability assay, anti-proliferative/cytotoxic activity on proliferating RKO subclones; type: cell-based; conditions: RKOp27, 72 h, RKO p27 uninduced (proliferating) cells, value = class bound given in Table A, read-out: −logIC50 RKO p27 uninduced (proliferating) (converted)
Experimental: The anti-proliferative/cytotoxic activity of the compounds described herein, can be tested on subclones of RKO (RKOp27) human colon adenocarcinoma cells (Schmidt et al., Oncogene 19, 2423-2429; 2000) using the Alamar Blue cell viability assay (described in O'Brien et al. Eur J Biochem 267, 5421-5426, 2000). The compounds are dissolved as 20 mM solutions in dimethylsulfoxide (DMSO) and subsequently diluted in semi-logarithmic steps. DMSO dilutions are further diluted 1:100 into Dulbecco's modified Eagle's medium (DMEM) containing 10% fetal calf serum to a final concentration twice as much as the final concentration in the test. RKO subclones are seeded into 96 well flat bottom plates at a density of 5000 cells per well in a volume of 50 μl per well. 24 hours after seeding the 50 μl each of the compound dilutions in DMEM medium are added into each well of the 96 Well plate. Each compound dilution is tested as quadruplicates. Wells containing untreated control cells are filled with 50 μl DMEM medium containing 1% DMSO. The cells are then incubated with the substances for 72 hours at 37° C. in a hunified atmosphere containing 5% carbon dioxide. To determine the viability of the cells, 10 μl of an Alamar Blue solution (Biosource) are added and the fluorescence is measured at an extinction of 544 nm and an emission of 590 nm. For the calculation of the cell viability the emission value from untreated cells is set as 100% viability and the emission rates of treated cells are set in relation to the values of untreated cells. Viabilities are expressed as % values.
The corresponding IC50 values of the compounds for anti-proliferative/cytotoxic activity are determined from the concentration-effect curves.
(§1) Representative −log IC50 [mol/l] values for anti-proliferation/cytotoxicity determined in the mentioned assays follow from the following table A, in which the numbers of the compound correspond to the numbers of the examples.

[2] = tested on: subclones of RKO colon adenocarcinoma cells (RKOp27 or RKOp21) arrested by Ponasterone A; assay: Alamar Blue cell viability assay, cell cycle specific mode of action: cells arrested by ectopic p27Kip1 induced by Ponasterone A versus proliferating cells; type: cell-based; conditions: Homo sapiens, RKO p27 induced (arrested) cells, 10 μM Ponasterone A, 72 hours, value = class bound given in Table A, read-out: −logIC50 RKO p27 induced (arrested) (converted)
Experimental: To determine the cell cycle specific mode of action, subclones of RKO colon adenocarcinoma cells (RKOp27 or RKOp21 as described by Schmidt et al. in Oncogene 19, 2423-2429; 2000) are seeded into 96 well flat bottom plates at a density of 15000 cells per well in a volume of 50 μl per well in DMEM growth medium with 10% FCS containing 10 μM Ponasterone A. 24 hours after seeding the 50 μl each of the compound dilutions in DMEM medium are added into each well of the 96 Well plate. Each compound dilution is tested as quadruplicates. Wells containing untreated control cells are filled with 50 μl DMEM medium containing 1% DMSO. The cells are then incubated with the substances for 72 hours at 37° C. in a humidified athmosphere containing 5% carbon dioxide. To determine the viability of the cells, 10 μl of an Alamar Blue solution (Biosource) are added and the fluorescence was measured at an extinction of 544 nm and an emission of 590 nm. For the calculation of the cell viability the emission value from untreated cells is set as 100% viability and the emission rates of treated cells are set in relation to the values of untreated cells. Viabilities are expressed as % values. Viability is compared of proliferating cells grown in the absence of the inducer Ponasterone A, versus viability of cells arrested by the expression of ectopic p27Kip1 induced by Ponasterone A.
as §1

Compound	IC50 [2]	IC50 [1]
N#Cc1c(NC(=O)/C=C/c2cccnc2)sc2c1CCC(OC(=O)N1CCC(O)CC1)C2 (centres unmarked) [Example 96, 4-Hydroxy-piperidine-1-carboxylic acid 3-cyano-2-((E)-3-pyridin-3-yl-allanoylamino)-4,5,6,7-tetrahydro-benzo[b]thiophen-6-yl ester]	≥ 100000 nM	≤ 501 nM
N#Cc1c(NC(=O)/C=C/c2cccnc2)sc2c1CCC(COC(=O)N1CC[C@H](O)C1)C2 (stereo partly drawn) [Example 144, (S)-3-Hydroxy-pyrrolidine-1-carboxylic acid 3-cyano-2-((E)-3-pyridin-3-yl-allanoylamino)-4,5,6,7-tetrahydro-benzo[b]thiophen-6-ylmethyl ester]	≥ 100000 nM	≤ 501 nM
CNC(=O)OC1CCc2c(sc(NC(=O)/C=C/c3cccnc3)c2C#N)C1 (centres unmarked) [Example 20, Methyl-carbamic acid 3-cyano-2-((E)-3-pyridin-3-yl-allanoylamino)-4,5,6,7-tetrahydro-benzo[b]thiophen-6-yl ester]	≥ 100000 nM	≤ 501 nM
N#Cc1c(NC(=O)/C=C/c2cccnc2)sc2c1CCC(OC(=O)N1CCCO1)C2 (centres unmarked) [Example 119, Isoxazolidine-2-carboxylic acid 3-cyano-2-((E)-3-pyridin-3-yl-allanoylamino)-4,5,6,7-tetrahydro-benzo[b]thiophen-6-yl ester]	≥ 100000 nM	≤ 501 nM
COc1cccc(C(C)CC(=O)Nc2sc3c(c2C#N)CCC(OC(=O)N2CCCC2)C3)c1 (centres unmarked) [Example 376, Pyrrolidine-1-carboxylic acid 3-cyano-2-(3-(3-methoxy-phenyl)-butanoylamino)-4,5,6,7-tetrahydro-benzo[b] thiophen-6-yl ester]	≥ 10000 nM	≤ 501 nM
COc1cccc(C(C)CC(=O)Nc2sc3c(c2C#N)CCC(OC(=O)NCC2CCOCC2)C3)c1 (centres unmarked) [Example 270, (Tetrahydro-pyran-4-ylmethyl)-carbamic acid 3-cyano-2-[3-(3-methoxy-phenyl)-butanoyl-amino]-4,5,6,7-tetrahydro-benzo[b]thiophen-6-yl ester]	≥ 100000 nM	501 to 2000 nM
N#Cc1c(NC(=O)/C=C/c2cccnc2)sc2c1CCC(OC(=O)NC1COC1)C2 (centres unmarked) [Example 148, Oxetan-3-yl-carbamicacid 3-cyano-2-((E)-3-pyridin-3-yl-allanoylamino)-4,5,6,7-tetrahydro-benzo[b]thiophen-6-yl ester]	≥ 100000 nM	501 to 2000 nM
Cc1nn(C)cc1CNC(=O)OC1CCc2c(sc(NC(=O)/C=C/c3cccnc3)c2C#N)C1 (centres unmarked) [Example 57, (1,3-Dimethyl-1H-pyrazol-4-ylmethyl)-carbamic acid 3-cyano-2-((E)-3-pyridin-3-yl-allanoylamino)-4,5,6,7-tetrahydro-benzo[b]thiophen-6-yl ester]	≥ 100000 nM	≤ 501 nM
COc1cccc(C(C)CC(=O)Nc2sc3c(c2C#N)CCC(OC(=O)N2CCOCC2)C3)c1 (centres unmarked) [Example 374, Morpholine-4-carboxylic acid 3-cyano-2-(3-(3-methoxy-phenyl)-butanoylamino)-4,5,6,7-tetrahydro-benzo[b] thiophen-6-yl ester]	≥ 50100 nM	≤ 501 nM

More lines, main results first:

IC50 [2]	Compound	IC50 [1]
≥ 100000 nM	CCOC(=O)OCC1CCc2c(sc(NC(=O)CCc3ccccc3OCC)c2C#N)C1 (centres unmarked) [Example 151, Carbonic acid 3-cyano-2-[3-(2-ethoxy-phenyl)-propanoylamino]-4,5,6,7-tetrahydro-benzo[b]thiophen-6-ylmethyl ester ethyl ester]	≤ 501 nM
≥ 50100 nM	COc1cccc(C(C)CC(=O)Nc2sc3c(c2C#N)CCC(COC(=O)NC2CCOCC2)C3)c1 (centres unmarked) [Example 329, (Tetrahydro-pyran-4-yl)-carbamic acid 3-cyano-2-[3-(3-methoxy-phenyl)-butanoyl-amino]-4,5,6,7-tetrahydro-benzo[b] thiophen-6-ylmethyl ester]	501 to 2000 nM
≥ 100000 nM	CCNC(=O)OC[C@H]1CCc2c(sc(NC(=O)/C=C/c3cccnc3)c2C#N)C1 [Example 9a, (S)-Ethyl-carbamic acid 3-cyano-2-((E)-3-pyridin-3-yl-allanoylamino)-4,5,6,7-tetrahydro-benzo[b]thiophen-6-ylmethyl ester]	≤ 501 nM
≥ 100000 nM	COc1cccc(CCC(=O)Nc2sc3c(c2C#N)CCC(OC(=O)NCc2csc(C)n2)C3)c1 (centres unmarked) [Example 232, (2-Methyl-thiazol-4-ylmethyl)-carbamic acid 3-cyano-2-[3-(3-methoxy-phenyl)-propanoylamino]-4,5,6,7-tetrahydro-benzo[b]thiophen-6-yl ester]	501 to 2000 nM
≥ 10000 nM	COc1cccc(C(C)CC(=O)Nc2sc3c(c2C#N)CCC(COC(=O)NCc2nccn2C)C3)c1 (centres unmarked) [Example 330, (1-Methyl-1H-imidazol-2-ylmethyl)-carbamic acid 3-cyano-2-[3-(3-methoxy-phenyl)-butanoylamino]-4,5,6,7-tetrahydro-benzo[b] thiophen-6-ylmethyl ester]	501 to 2000 nM
≥ 10000 nM	CC(CC(=O)Nc1sc2c(c1C#N)CCC(COC(=O)N1CCOCC1)C2)c1ccccc1 (centres unmarked) [Example 378, Morpholine-4-carboxylic acid 3-cyano-2-[3-phenyl-butanoyl-amino]-4,5,6,7-tetrahydro-benzo[b] thiophen-6-ylmethyl ester]	≤ 501 nM
≥ 10000 nM	CCOc1ccccc1CCC(=O)Nc1sc2c(c1C#N)CCC(OC(=O)NCc1nccn1C)C2 (centres unmarked) [Example 173, (1-Methyl-1H-imidazol-2-ylmethyl)-carbamic acid 3-cyano-2-[3-(2-ethoxy-phenyl)-propanoylamino]-4,5,6,7-tetrahydro-benzo[b]thiophen-6-yl ester]	≤ 501 nM
≥ 100000 nM	COc1cccc(CCC(=O)Nc2sc3c(c2C#N)CCC(COC(=O)NCC2CCCO2)C3)c1 (centres unmarked) [Example 241, (Tetrahydro-furan-2-ylmethyl)-carbamic acid 3-cyano-2-[3-(3-methoxy-phenyl)-propanoylamino]-4,5,6,7-tetrahydro-benzo[b]thiophen-6-ylmethyl ester]	501 to 2000 nM
≥ 10000 nM	CC(CC(=O)Nc1sc2c(c1C#N)CCC(COC(=O)NCc1cncn1C)C2)c1ccccc1 (centres unmarked) [Example 312, (3-Methyl-3H-imidazol-4-ylmethyl)-carbamic acid 3-cyano-2-(3-phenyl-butanoylamino)-4,5,6,7-tetrahydro-benzo[b] thiophen-6-ylmethyl ester]	≤ 501 nM
≥ 100000 nM	Cc1cc(CNC(=O)OCC2CCc3c(sc(NC(=O)/C=C/c4cccnc4)c3C#N)C2)no1 (centres unmarked) [Example 47, (5-Methyl-isoxazol-3-ylmethyl)-carbamic acid 3-cyano-2-((E)-3-pyridin-3-yl-allanoylamino)-4,5,6,7-tetrahydro-benzo[b]thiophen-6-ylmethyl ester]	≤ 501 nM
≥ 100000 nM	COc1cccc(CCC(=O)Nc2sc3c(c2C#N)CCC(OC(=O)NCC2CCOCC2)C3)c1 (centres unmarked) [Example 220]	501 to 2000 nM
≥ 50100 nM	COc1cccc(CCC(=O)Nc2sc3c(c2C#N)CCC(OC(=O)NCc2cncn2C)C3)c1 (centres unmarked) [Example 265, (3-Methyl-3H-imidazol-4-ylmethyl)-carbamic acid 3-cyano-2-[3-(3-methoxy-phenyl)-propanoylamino]-4,5,6,7-tetrahydro-benzo[b]thiophen-6-yl ester]	≤ 501 nM
≥ 100000 nM	CC1CCCN1C(=O)OCC1CCc2c(sc(NC(=O)/C=C/c3cccnc3)c2C#N)C1 (centres unmarked) [Example 88, 2-Methylpyrrolidine-1-carboxylic acid 3-cyano-2-((E)-3-pyridin-3-yl-allanoylamino)-4,5,6,7-tetrahydro-benzo[b]thiophen-6-ylmethyl ester]	≤ 501 nM

From US20110044938A1 (NYCOMED GMBH, priority 2006, published 2011)
